# Results taken from patent US5627203A, “Tricyclic oxime ethers” (Adir et Compagnie, priority 1994, dated 1997).
# Experiments:
# 5-HT1B receptors = target: T1, 5-HT1B receptors (Rattus norvegicus, UniProt P28564); experiment: Displacement of 5-hydroxytryptamine at 5-HT1B receptors; assay type: binding; conditions: rat cortex, striatum, and globus pallidus homogenates
# T1 construct: rat cortex, striatum, and globus pallidus homogenates; from tissue; host or cells: rat cortex, striatum and globus pallidus
# T1 sequence (P28564 whole entry): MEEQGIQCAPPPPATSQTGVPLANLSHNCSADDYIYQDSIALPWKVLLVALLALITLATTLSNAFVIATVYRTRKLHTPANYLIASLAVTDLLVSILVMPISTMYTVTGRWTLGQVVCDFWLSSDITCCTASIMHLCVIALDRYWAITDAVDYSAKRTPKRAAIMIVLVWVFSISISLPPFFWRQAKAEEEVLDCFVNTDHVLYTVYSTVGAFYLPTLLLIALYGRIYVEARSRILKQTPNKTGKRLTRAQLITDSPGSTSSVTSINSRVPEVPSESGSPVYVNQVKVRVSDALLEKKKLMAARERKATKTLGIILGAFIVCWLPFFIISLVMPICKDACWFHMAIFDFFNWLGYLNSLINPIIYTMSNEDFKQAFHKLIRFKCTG
# Description: (§1) A-2: Study of the binding of the compounds of the invention to the serotonin reuptake site as well as to 5-HT1, 5-HT1A, 5-HT1B, 5-HT1D, 5-HT2, 5-HT2C, 5-HT4 serotoninergic receptors.
# (§2) The binding of the compounds of the invention is measured in accordance with conventional methods.
# for 5-HT1B receptors, by the displacement of 5-hydroxytryptamine in rat cortex, striatum, and globus pallidus homogenates, […]
# 5-HT3 receptors = target: T2, 5-HT3 receptors (Rattus norvegicus, UniProt P35563); experiment: Displacement of 3H-zacopride at 5-HT3 receptors; assay type: binding; conditions: 0.3-0.4 nM 3H-zacopride, rat area postrema homogenates, pH 7.4, 25° C., 30 minutes
# T2 construct: rat area postrema homogenates; from tissue; host or cells: rat area postrema
# T2 sequence (P35563 24-483): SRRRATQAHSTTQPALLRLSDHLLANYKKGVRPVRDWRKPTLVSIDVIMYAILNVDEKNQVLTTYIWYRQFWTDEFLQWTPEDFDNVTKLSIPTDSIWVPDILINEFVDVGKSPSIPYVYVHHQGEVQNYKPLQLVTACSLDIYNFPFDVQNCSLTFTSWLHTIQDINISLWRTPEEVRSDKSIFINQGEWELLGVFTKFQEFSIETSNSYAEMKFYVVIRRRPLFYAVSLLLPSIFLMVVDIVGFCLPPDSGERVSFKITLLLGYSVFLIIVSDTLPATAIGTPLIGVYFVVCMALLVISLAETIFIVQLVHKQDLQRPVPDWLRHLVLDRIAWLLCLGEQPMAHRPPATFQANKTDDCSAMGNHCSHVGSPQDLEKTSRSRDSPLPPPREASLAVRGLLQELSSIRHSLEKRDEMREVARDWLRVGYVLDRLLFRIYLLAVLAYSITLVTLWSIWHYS
# Description: A-1: Study of the binding of the compounds of the invention to 5-HT3 serotoninergic receptors
# The binding of the compounds of the invention to 5-HT3 receptors was determined for each compound by measuring the displacement of ^3 H-zacopride (specific ligand for 5-HT3 receptors) in rat area postrema homogenates.
# Aliquot amounts (50-100 μl) of a membrane suspension (2.5-5.0 mg of protein/cm^3) are incubated for 30 minutes at 25° C. in a Tris-HCl buffer, 25 mM, pH 7,4, in the presence of 0.3-0.4 nM 3^H -zacopride (83 ci/mmol) (total volume: 0.5 cm^3). The incubation is terminated by filtering the samples through Whatman GF/B filters which are then washed and dried. The radioactivity retained on the filters is finally calculated by spectrometry in liquid medium (Aquasol). The non-specific binding is evaluated under the same conditions using samples containing in addition 1 μM of ondansetron (5-HT3 antagonist). The displacement curves obtained by adding increasing concentrations of a test compound to the incubation medium are analysed to determine the affinity of the test compounds for 5-HT3 receptors.
# 5-HT1 receptors = experiment: Displacement of 5-OH tryptamine at 5-HT1 receptors; assay type: binding; conditions: pig frontal cortex and striatum
# Description: as §1, §2
# for 5-HT1 receptors, by the displacement of 5-OH tryptamine in pig frontal cortex and striatum, […]
# mouse = experiment: Anxiolytic activity: illuminated/darkened cages test on the mouse; assay type: in vivo; conditions: 15 mg/kg, i.p. route, 5 minutes
# Excerpt: The anxiolytic effects of the compounds of the invention were studied in accordance with the illuminated/darkened cages test on the mouse (Crawley et al. (1981), Pharmacol. Biochem. Behav., 15, pp 695-699).
# The test uses two cages of equal size (20×20×14 cm) made of PVC. One is strongly illuminated by a 100 W bulb ("cold" light) and the other is darkened. The two cages are separated from one another by a small opaque tunnel (5×7 cm). The mice are introduced individually into the tunnel and, once they have entered the darkened cage for the first time, a recording is made over a period of 5 minutes, by means of pads connected to a computer, of the time spent by the animals in the illuminated cage as well as the number of transfers between the darkened cage and the illuminated cage. Each experimental group comprises a minimum of 15 animals.
# 5-HT1A receptors = target: T3, 5-HT1A receptors (Rattus norvegicus, UniProt P19327); experiment: Displacement of 8-OH-DPAT at 5-HT1A receptors; assay type: binding; conditions: rat hippocampus homogenates
# T3 construct: rat hippocampus homogenates; from tissue; host or cells: rat hippocampus
# T3 sequence (P19327 1-422): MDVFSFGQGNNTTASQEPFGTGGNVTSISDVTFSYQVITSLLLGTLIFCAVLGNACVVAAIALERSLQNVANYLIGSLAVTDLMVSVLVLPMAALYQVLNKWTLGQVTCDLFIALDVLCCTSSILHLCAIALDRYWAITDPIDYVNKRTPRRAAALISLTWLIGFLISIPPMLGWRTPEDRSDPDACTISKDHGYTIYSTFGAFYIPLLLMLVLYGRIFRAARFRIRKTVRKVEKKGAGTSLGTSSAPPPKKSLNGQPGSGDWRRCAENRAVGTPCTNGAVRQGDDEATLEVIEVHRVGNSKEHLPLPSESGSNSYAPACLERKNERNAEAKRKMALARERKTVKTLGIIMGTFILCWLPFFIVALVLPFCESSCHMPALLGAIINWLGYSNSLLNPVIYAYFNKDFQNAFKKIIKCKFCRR
# Description: as §1, §2
# for 5-HT1A receptors, by the displacement of 8-OH-DPAT in rat hippocampus homogenates, […]
# serotonin reuptake site = target: T4, serotonin reuptake site (Rattus norvegicus, UniProt P31652); experiment: Displacement of 3H-paroxetine at the serotonin reuptake site; assay type: binding; conditions: rat brain without cerebellum, read-out: IC50, serotonin reuptake sites
# T4 construct: rat brain from which the cerebellum has been removed; from tissue; host or cells: rat brain without cerebellum
# T4 sequence (P31652 whole entry): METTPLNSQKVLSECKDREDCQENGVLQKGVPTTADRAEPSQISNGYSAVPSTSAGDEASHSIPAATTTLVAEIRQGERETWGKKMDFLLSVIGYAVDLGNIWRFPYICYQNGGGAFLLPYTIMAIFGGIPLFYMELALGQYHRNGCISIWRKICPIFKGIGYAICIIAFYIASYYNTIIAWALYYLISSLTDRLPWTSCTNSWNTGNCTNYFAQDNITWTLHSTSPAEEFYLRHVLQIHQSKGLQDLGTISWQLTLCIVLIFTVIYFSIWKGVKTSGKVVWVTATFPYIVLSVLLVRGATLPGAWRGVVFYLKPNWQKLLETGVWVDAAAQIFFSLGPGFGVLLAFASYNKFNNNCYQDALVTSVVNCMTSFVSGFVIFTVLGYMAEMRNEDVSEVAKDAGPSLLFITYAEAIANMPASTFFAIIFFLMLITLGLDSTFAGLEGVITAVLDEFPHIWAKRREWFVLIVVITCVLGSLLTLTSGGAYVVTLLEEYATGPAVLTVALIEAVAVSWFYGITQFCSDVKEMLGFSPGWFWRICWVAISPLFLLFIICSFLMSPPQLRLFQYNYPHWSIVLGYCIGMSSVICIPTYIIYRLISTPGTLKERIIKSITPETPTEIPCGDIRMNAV
# Description: as §1, §2
# for the serotonin reuptake site, by the displacement of ^3 H-paroxetinein rat brain from which the cerebellum has been removed, […]
# 5-HT1D receptors = experiment: Displacement of 5-OH-tryptamine at 5-HT1D receptors; assay type: binding; conditions: rat cortex, striatum and globus pallidus homogenates
# Description: as §1, §2
# for 5-HT1D receptors, by the displacement of 5-OH-tryptamine in rat cortex, striatum and globus pallidus homogenates, […]
# 5-HT2 receptors = target: T5, 5-HT2 receptors (Rattus norvegicus, UniProt P14842); experiment: Displacement of aminoiodoketaneserine at 5-HT2 receptors; assay type: binding; conditions: rat frontal cortex homogenates
# T5 construct: rat frontal cortex homogenates; from tissue; host or cells: rat frontal cortex
# T5 sequence (P14842 whole entry): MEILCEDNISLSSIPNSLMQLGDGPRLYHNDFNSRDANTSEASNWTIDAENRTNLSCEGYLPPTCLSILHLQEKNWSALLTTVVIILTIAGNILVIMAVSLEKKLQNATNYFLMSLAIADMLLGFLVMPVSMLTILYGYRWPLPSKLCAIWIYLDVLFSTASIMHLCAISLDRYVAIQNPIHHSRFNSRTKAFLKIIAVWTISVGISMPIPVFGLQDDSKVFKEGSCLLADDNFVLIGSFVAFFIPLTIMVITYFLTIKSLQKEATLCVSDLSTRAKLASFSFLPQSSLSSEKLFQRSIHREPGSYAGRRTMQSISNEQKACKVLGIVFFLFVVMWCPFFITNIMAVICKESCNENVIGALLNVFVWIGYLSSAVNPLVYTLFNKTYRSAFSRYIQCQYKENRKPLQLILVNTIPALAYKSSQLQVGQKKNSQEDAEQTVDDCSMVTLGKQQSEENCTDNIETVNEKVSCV
# Description: as §1, §2
# for 5-HT2 receptors, by the displacement of aminoiodoketaneserine in rat frontal cortex homogenates, […]
# 5-HT2C receptors = target: T6, 5-HT2C receptors (Rattus norvegicus, UniProt P08909); experiment: Displacement of N-methylmesulergine at 5-HT2C receptors; assay type: binding; conditions: rat frontal cortex and hippocampus homogenates
# T6 construct: rat frontal cortex and hippocampus homogenates; from tissue; host or cells: rat frontal cortex and hippocampus
# T6 sequence (P08909 33-460): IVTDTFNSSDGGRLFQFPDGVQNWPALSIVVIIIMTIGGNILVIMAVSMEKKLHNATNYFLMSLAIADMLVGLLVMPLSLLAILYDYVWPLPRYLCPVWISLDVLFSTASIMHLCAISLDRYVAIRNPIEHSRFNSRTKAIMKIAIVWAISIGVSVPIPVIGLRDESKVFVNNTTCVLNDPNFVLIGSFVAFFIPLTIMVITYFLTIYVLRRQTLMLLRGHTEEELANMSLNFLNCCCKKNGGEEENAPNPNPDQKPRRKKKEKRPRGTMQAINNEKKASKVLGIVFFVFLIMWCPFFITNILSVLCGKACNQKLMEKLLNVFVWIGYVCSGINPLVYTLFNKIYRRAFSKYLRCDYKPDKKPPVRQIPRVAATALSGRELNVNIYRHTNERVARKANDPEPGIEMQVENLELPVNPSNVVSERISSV
# Description: as §1, §2
# for 5-HT2C receptors, by the displacement of N-methylmesulergine in rat frontal cortex and hippocampus homogenates, […]
structure (smiles),measurement,setting,value
Cc1csc2c1-n1cccc1/C2=N/OCC(C)N(C)C (stereo not shown) [Example 22],IC50,5-HT1B receptors,11 µM
same,IC50,5-HT3 receptors,0.001 µM
same,IC50,5-HT1 receptors,6.9 µM
same,"Number of transfers, percentage compared with the control group",mouse,+76%
same,"Time spent in the illuminated cage, percentage compared with the control group",mouse; *p < 0.5,+92%
same,IC50,5-HT1A receptors,9 µM
same,IC50,serotonin reuptake site,0.11 µM
same,IC50,5-HT1D receptors,6.4 µM
same,IC50,5-HT2 receptors,11 µM
same,IC50,5-HT2C receptors,1.6 µM
